Measurements taken from patent US9271978B2 (Zenith Epigenetics Corp., priority 2012, dated 2016).

Tests used:
[1] = molecular target: T1, second bromodomain of Brd2 (BRD2(2)) (Homo sapiens, UniProt P25440); assay: Inhibition of tetra-acetylated histone H4 binding to Brd2 bromodomain 2 (TR-FRET); parameters: key: Active: Compounds with an IC50 value less than 30 μM were deemed to be active.; Not Active: Compounds with an IC50 value less than 30 μM were deemed to be active; settings: tetra-acetylated histone H4 peptide, active = IC50 <30 μM
T1 construct: made in house; host or cells: E. coli BL21 (DE3)
Method in brief: (§1)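 IC50 values come from dose-response curves of the 665 nm to 620 nm TR-FRET signal decrease, measured after 2 h at room temperature. Reactions contained 200 nM E. coli-expressed His-tagged bromodomain, 25-50 nM biotinylated tetra-acetylated H4 peptide, Eu-streptavidin plus XL665 anti-His antibody, with 30 mM HEPES pH 7.4, 320 mM KF and 0.2% DMSO.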

[2] = system: c-myc; assay: Inhibition of c-myc expression in MV4-11 cells (mRNA, real-time PCR); assay type: cell-based; parameters: key: Active: Compounds with an IC50 value less than 30 μM were deemed to be active.; Not Active: Compounds with an IC50 value less than 30 μM were deemed to be active; settings: Human AML MV4-11 cells, 3 h incubation
Method in brief: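 Duplex RT-qPCR of c-myc against cyclophilin cDNA gave IC50 from a dose–response curve. Input was isolated mRNA from 2.5×10^4 MV4-11 cells after 3 h exposure at 37 °C to compound or 0.1% DMSO vehicle.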

[3] = system: hIL-6 mRNA; assay: Inhibition of hIL-6 mRNA transcription in U937 cells; assay type: cell-based, human; parameters: key: Active: Compounds with an IC50 value less than 30 μM were deemed to be active.; Not Active: Compounds with an IC50 value less than 30 μM were deemed to be active; settings: LPS stimulation, active = IC50 <30 μM
Method in brief: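 Readout is one-step real-time PCR of hIL-6 mRNA, normalized to an internal control and given as fold induction versus control. Cells: PMA (60 ng/mL, 3 days)-differentiated U937 macrophages, compound added 1 h before 1 ug/mL LPS, harvested after 3 h at 37° C.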

[4] = system: human AML MV-4-11 (CRL-9591) cells; assay: Inhibition of cell proliferation in MV4-11 cells; assay type: cell-based; parameters: key: Active: Compounds with an IC50 value less than 30 μM were deemed to be active.; Not Active: Compounds with an IC50 value less than 30 μM were deemed to be active; settings: human AML MV-4-11 cells, 72 h; active = IC50 <30 μM
Method in brief: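 IC50 values come from blank-corrected proliferation relative to DMSO controls, read as 490 nm absorbance 3–4 h after CellTiter Aqueous One addition. Before that, cells seeded at 5×10^4/well were exposed for 72 h (37° C, 5% CO2) to triplicate two-fold compound dilutions spanning 30–0.2 μM.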

[5] = molecular target: T2, Brd4 bromodomain 1 (BRD4(1)) (Homo sapiens, UniProt O60885); assay: Inhibition of tetra-acetylated histone H4 binding to Brd4 bromodomain 1 (TR-FRET); parameters: key: Active: Compounds with an IC50 value less than 30 μM were deemed to be active.; Not Active: Compounds with an IC50 value less than 30 μM were deemed to be active; settings: tetra-acetylated histone H4 peptide, active = IC50 <30 μM
T2 construct: Illustrative results with the first bromodomain of Brd4; made in house; host or cells: E. coli BL21 (DE3)
Method in brief: as §1

[6] = system: hIL-17 mRNA; assay: Inhibition of hIL-17 mRNA transcription in human peripheral blood mononuclear cells; assay type: cell-based; parameters: key: Active: Compounds with an IC50 value less than 30 μM were deemed to be active.; Not Active: Compounds with an IC50 value less than 30 μM were deemed to be active; settings: OKT3 antibody stimulation
Procedure: In this example, hIL-17 mRNA in human peripheral blood mononuclear cells was quantitated to measure the transcriptional inhibition of hIL-17 when treated with a compound of the invention.
Human peripheral blood mononuclear cells were plated (2.0×10^5 cells per well) in a 96-well plate in 45 μL OpTimizer T Cell expansion media containing 20 ng/ml IL-2 and penicillin/streptomycin. The cells were treated with the test compound (45 μL. at 2× concentration), and then the cells were incubated at 37° C. for 1 h before addition of 10× stock OKT3 antibody at 10 ug/ml in media. Cells were incubated at 37° C. for 3 h before the cells were harvested. At time of harvest, cells were centrifuged (800 rpm, 5 min). Spent media was removed and cell lysis solution (70 μL) was added the cells in each well and incubated for 5-10 min at room temperature, to allow for complete cell lysis and detachment. mRNA was then prepared using the “mRNA Catcher PLUS plate” (Invitrogen), according to the protocol supplied. After the last wash, as much wash buffer as possible was aspirated without allowing the wells to dry. Elution buffer (E3, 70 μL) was then added to each well. mRNA was then eluted by incubating the mRNA Catcher PLUS plate with Elution Buffer for 5 min at 68° C. and then immediately placing the plate on ice.
The eluted mRNA isolated was then used in a one-step quantitative real-time PCR reaction, using components of the Ultra Sense Kit together with Applied Biosystems primer-probe mixes. Real-time PCR data was analyzed, normalizing the Ct values for hIL-17 to an internal control, prior to determining the fold induction of each unknown sample, relative to the control.

[7] = system: ApoA-I mRNA; assay: Up-regulation of hApoA-1 mRNA transcription in Huh7 cells; assay type: cell-based, human; parameters: key: Active: Compounds with an EC170 value less than 30 μM were deemed to be active; settings: 48 h treatment, ApoA-I mRNA by real-time PCR, Active = EC170 less than 30 μM
Method in brief: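 Huh7 cells treated with compound for 48 h. ApoA-I mRNA was then quantified in captured mRNA by one-step real-time RT-PCR. Fold induction calculated from Ct values relative to the matching DMSO control; EC170 is the concentration for 170% of control expression.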

T1 sequence (P25440 344-453 limits assumed): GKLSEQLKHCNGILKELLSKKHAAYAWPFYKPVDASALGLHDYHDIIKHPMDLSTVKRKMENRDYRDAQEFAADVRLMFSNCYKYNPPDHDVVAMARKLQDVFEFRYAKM

| Structure (SMILES) | melting point [°C] | FRET activity (IC50 <30 μM) BRD2(2) [1] | c-myc activity (IC50 <30 μM) [2] | IL-6 activity (IC50 <30 μM) [3] | Cell Proliferation activity (IC50 <30 μM) [4] | FRET activity (IC50 <30 μM) BRD4(1) [5] | IL-17 activity (IC50 < 30 μM) [6] | ApoA-1 activity (EC170 <30 μM) [7] |
| --- | --- | --- | --- | --- | --- | --- | --- | --- |
| COc1cc(Nc2nn(Cc3ccccc3)c(=O)c3ccccc23)cc(OC)c1OC [Example 171, 2-Benzyl-4-(3,4,5-trimethoxyphenylamino)-2H-phthalazin-1-one] | 206 to 207 | Active | Active | Active | Active | Active |  |  |
| COc1ccc(-c2cn(Cc3ccccc3)c(=O)c3ccccc23)cc1OC [Example 166, 2-Benzyl-4-(3,4-dimethoxyphenyl)isoquinolin-1(2H)-one] | 174 to 176 | Not Active |  |  |  | Active |  |  |
| COc1cc(-c2nn(Cc3ccccc3)c(=O)c3ccccc23)ccc1O [Example 165, 2-Benzyl-4-(4-hydroxy-3-methoxyphenyl)-2H-phthalazin-1-one] | 197 to 200 | Active | Active | Active | Active | Active |  |  |
| Cc1noc(C)c1-c1cn(Cc2ccccc2)c(=O)c2cnccc12 [Example 175, 2-Benzyl-4-(3,5-dimethylisoxazol-4-yl)-2,7-naphthyridin-1(2H)-one] | 174 to 177 | Active |  |  |  | Active |  |  |
| Cc1noc(C)c1-c1cn(Cc2ccccc2)c(=O)c2ccccc12 [Example 167, 2-Benzyl-4-(3,5-dimethylisoxazol-4-yl)isoquinolin-1(2H)-one] | 139 to 141 | Active | Not Active | Active | Active | Active |  |  |
| Cc1noc(C)c1-c1cc(N)c(=O)n(Cc2cccc3[nH]ccc23)c1 [Example 247, 1-((1H-Indol-4-yl)methyl)-3-amino-5-(3,5-dimethylisoxazol-4-yl)pyridin-2(1H)-one] |  |  | Active | Active | Active | Active | Active |  |
| Cc1noc(C)c1-c1cn(Cc2ccccc2)c(=O)c2ncccc12 [Example 174, 7-Benzyl-5-(3,5-dimethylisoxazol-4-yl)-1,7-naphthyridin-8(7H)-one] | 168 to 170 | Active |  |  |  | Active |  |  |
| Cc1noc(C)c1-c1cn(Cc2ccccc2)c(=O)c2cccnc12 [Example 173, 6-Benzyl-8-(3,5-dimethylisoxazol-4-yl)-1,6-naphthyridin-5(6H)-one] | 192 to 195 | Active |  |  |  | Active |  |  |
| COc1cc(Nc2cn(Cc3ccccc3)c(=O)c3ccccc23)cc(OC)c1OC [Example 172, 2-Benzyl-4-((3,4,5-trimethoxyphenyl)amino)isoquinolin-1(2H)-one] | 162 to 164 | Active | Not Active | Active | Active | Active |  |  |
| COc1cc(-c2cn(Cc3ccccc3)c(=O)c3ccccc23)cc(OC)c1OC [Example 168, 2-Benzyl-4-(3,4,5-trimethoxyphenyl)isoquinolin-1(2H)-one] | 166 to 168 | Active | Not Active | Not Active | Active | Not Active |  |  |
| Cc1noc(C)c1-c1ccc(=O)n(C(C)c2ccc(Cl)cc2)c1 (centres unmarked) [Example 105, 1-(1-(4-Chlorophenyl)ethyl)-5-(3,5-dimethylisoxazol-4-yl)pyridin-2(1H)-one] |  | Active | Active | Active | Active | Active |  | Active |
| Cc1noc(C)c1-c1cn(Cc2ccccc2)c(=O)c2ccncc12 [Example 176, 2-Benzyl-4-(3,5-dimethylisoxazol-4-yl)-2,6-naphthyridin-1(2H)-one] | 159 to 161 | Active |  |  |  | Active |  |  |
| Cc1noc(C)c1-c1ccc(=O)n(Cc2cccc3[nH]ccc23)c1 [Example 149, 1-((1H-Indol-4-yl)methyl)-5-(3,5-dimethylisoxazol-4-yl)pyridin-2(1H)-one] |  | Active | Active | Active | Active | Active |  | Active |
| COc1ccc(Nc2ccc(=O)n(Cc3ccccc3)n2)nc1OC [Example 99, 2-Benzyl-6-((5,6-dimethoxypyridin-2-yl)amino)pyridazin-3(2H)-one] |  | Active | Active | Active | Not Active | Active |  | Active |
| COc1cccc(Cn2nc(-c3cc(OC)c(OC)c(OC)c3)ccc2=O)c1 [Example 119, 2-(3-Methoxybenzyl)-6-(3,4,5-trimethoxyphenyl)pyridazin-3(2H)-one] |  | Active | Not Active | Active | Active | Active |  | Active |
| COc1cc(-c2cn(Cc3ccccc3)c(=O)c3ccccc23)ccc1O [Example 169, 2-Benzyl-4-(4-hydroxy-3-methoxyphenyl)isoquinolin-1(2H)-one] | 165 to 167 | Active | Active | Active | Active | Active |  |  |
